Results reported in paper PMC7767506, “Synthesis and Characterization of Store-Operated Calcium Entry Inhibitors Active in the Submicromolar Range” (International Journal of Molecular Sciences, 2020).
“Also recorded” adds a separate entry of the source.

Tests used:
[1] = test system: Jurkat cells; assay: Cell death by trypan blue staining of Jurkat cells; type: cell-based, human
Procedure: As this diminution in IL-2 synthesis can both be explained by the decrease of its synthesis by all cells, or by a decrease in the number of cells that can synthesize IL-2, we next evaluated cell death by trypan blue staining in the presence of PHA stimulation with and without the addition of compound P11.
Forty-eight-well plates were seeded with 10^6 Jurkat T cells per well. Cells were then incubated for 24 h with or without 10 µg/mL PHA and 0 to 1 µM P11 in complete culture medium. After 24 h, supernatants were collected, and IL-2 amounts were quantified using a Quantikine Human IL-2 Immunoassay (R&D Systems Europe, Lille, France). Optical density (OD) was measured at 450 nm using a Victor3 plate reader (Perkin Elmer, Courtaboeuf, France). The concentration of supernatant IL-2 was determined from the OD curve obtained with the standard. Results were the mean of four repeats. In parallel plates, cell viability was accessed after treatment with trypan blue and counting with a Malassez hematimeter (Sigma-Aldrich, Saint Quentin Fallavier, France).

[2] = target: SERCA (Mus musculus, UniProt O55143); assay: SERCA-mediated 45Ca2+ store loading in permeabilized L15 fibroblasts; type: cell-based
Sequence of SERCA (O55143 whole entry): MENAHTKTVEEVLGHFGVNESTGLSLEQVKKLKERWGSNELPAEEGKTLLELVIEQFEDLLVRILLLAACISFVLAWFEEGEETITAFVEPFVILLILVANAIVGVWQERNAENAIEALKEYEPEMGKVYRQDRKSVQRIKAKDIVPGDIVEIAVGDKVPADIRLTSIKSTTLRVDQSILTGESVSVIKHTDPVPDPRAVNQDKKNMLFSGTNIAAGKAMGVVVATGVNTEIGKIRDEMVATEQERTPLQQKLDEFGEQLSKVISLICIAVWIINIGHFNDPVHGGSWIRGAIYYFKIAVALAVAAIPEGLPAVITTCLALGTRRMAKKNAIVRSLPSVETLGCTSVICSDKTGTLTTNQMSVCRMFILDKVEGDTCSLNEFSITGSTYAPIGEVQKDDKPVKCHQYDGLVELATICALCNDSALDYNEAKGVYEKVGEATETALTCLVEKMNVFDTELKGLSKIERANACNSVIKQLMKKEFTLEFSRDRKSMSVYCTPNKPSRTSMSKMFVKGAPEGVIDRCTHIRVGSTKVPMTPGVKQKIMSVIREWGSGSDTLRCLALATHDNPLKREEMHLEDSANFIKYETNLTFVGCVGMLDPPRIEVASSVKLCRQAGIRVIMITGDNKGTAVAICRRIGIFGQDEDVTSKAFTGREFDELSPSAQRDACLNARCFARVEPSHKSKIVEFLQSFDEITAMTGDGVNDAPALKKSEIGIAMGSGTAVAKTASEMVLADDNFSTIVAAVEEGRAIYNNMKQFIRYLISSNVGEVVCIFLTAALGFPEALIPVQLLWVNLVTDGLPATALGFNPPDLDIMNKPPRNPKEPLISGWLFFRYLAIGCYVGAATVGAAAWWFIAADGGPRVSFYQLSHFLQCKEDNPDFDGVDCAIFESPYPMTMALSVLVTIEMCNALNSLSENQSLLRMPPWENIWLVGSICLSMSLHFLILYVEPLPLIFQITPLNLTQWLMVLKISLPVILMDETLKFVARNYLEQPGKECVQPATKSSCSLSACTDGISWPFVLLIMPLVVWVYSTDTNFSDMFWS
Procedure: Measurements of SERCA-mediated ^45Ca^2+ store loading and IP3-dependent release from the ER Ca^2+ store were performed on permeabilized cells in unidirectional conditions. As this approach required the use of cells forming strongly adherent monolayers, we used L15 fibroblasts stably overexpressing IP3R1, similarly to our previous work.
The L15 fibroblasts stably overexpressing IP3R1 were seeded in gelatin-coated 12-well plates (Greiner, Frickenhausen, Germany) at a density of 60,000 cells per well. Unidirectional ^45Ca^2+ flux experiments on confluent cell monolayers were performed at 30 °C after membrane permeabilization with saponin (40 µg/mL), exactly as previously described. After permeabilization, the non-mitochondrial Ca^2+ stores were loaded for 45 min in 120 mM KCl, 30 mM imidazole–HCl (pH 6.8), 5 mM MgCl2, 5 mM ATP, 0.44 mM EGTA, 10 mM NaN3, and 150 nM free ^45Ca^2+ (28 µCi mL^−1). Subsequently, efflux was initiated by incubation in efflux medium (120 mM KCl, 1 mM EGTA, 10 µM TG and 30 mM imidazole–HCl pH 6.8). The latter medium was replaced every two minutes for 18 minutes. The exact amount of Ca^2+ at each time point is calculated by summing in retrograde order the amount of radioactivity remaining in the cells at the end of the efflux and the radioactivity collected during the successive time intervals. This allows to calculate the steady-state content of the ER Ca^2+ stores (indicative for the SERCA activity, after subtraction of the loading achieved in the presence of 2 µM TG) the basal leak rate of Ca^2+ out of the stores and the IP3-induced Ca^2+ release after addition of IP3 (0.7 µM). These various parameters were measured both in control conditions or in the presence of various 2-APB analogs as indicated. To assess the effect of the 2-APB analogs on the SERCA-mediated loading of the ER Ca^2+ stores, the analogs were added during the ^45Ca^2+-loading phase as described previously. Obviously, compounds that strongly stimulated the basal Ca^2+ leak out of the stores (as P8) could not be investigated for their effect on SERCA activity (as Ca^2+ loading was already compromised by the increased leak) or on IP3-induced Ca^2+ release (as the decreased luminal Ca^2+ level impacted both the driving force for Ca^2+ release and the sensitivity of the IP3R).

[3] = test system: SOCE in MDA-MB231 (breast cancer) cells; assay: Thapsigargin-induced SOCE in MDA-MB231 cells, Indo-1; type: cell-based, human
Procedure: We also tested P11 on the DG75 (Burkitt B lymphoma), U937 (monocytic lymphoma), and MDA-MB231 (breast carcinoma) cell lines. […] Thus, in several cell lines, full inhibition of the SOCE was already obtained at a concentration of 100 nM (Figure 3B).
[Ca^2+]cyt was recorded by a fluorimetric ratio technique as previously described. Leukocytes were spun and resuspended at a density of 10^6 cells/mL in Hepes buffered saline (HBS; 135 mM NaCl, 5.9 mM KCl, 1.2 mM MgCl2, 11.6 mM Hepes, 11.5 mM glucose adjusted to pH 7.3 with NaOH). Due to the presence of 0.002% Ca^2+ in the NaCl, this HBS medium contained 0.1 mM of Ca^2+. Then, cells were incubated in the dark with 4 μM Indo-1-AM for one hour at room temperature under slow agitation. […] Ultraviolet light of 360 nm was used for excitation of Indo-1, and emissions at 405 and 480 nm were recorded. […] The maximum Indo-1 fluorescence (Rmax) was obtained by adding 1 µM ionomycin to the cell suspension in the presence of 10 mM extracellular CaCl2. Minimum fluorescence was determined following the depletion of external Ca^2+ with 5 mM EGTA.
To visualize the SOCE, cells were placed into the quartz cuvette and 0.5 EGTA was added just before the beginning of the recordings. […] In the dose-response experiments, different concentrations of 2-APB and its analogs were added 30 s prior to Ca^2+ readdition.

2-(dibiphenyl-4-ylboryloxy)ethanamine [P11]
dead cells (trypan blue) ([1]; 1 µM P11 alone, 24 h): 4.0 ± 0.4%
dead cells (trypan blue) ([1]; PHA + 1 µM P11, 24 h): 33.2 ± 1.3%
effect on SERCA ([2]; concentrations < 1 µM): devoid of any inhibitory activity; also recorded: without any effect
change of SERCA activity ([2]; concentrations > 30 µM): −89 ± 1%
Ki ([2]; permeabilized L15 fibroblasts): 7.4 ± 2 µM
Ki [3]: 0.05 ± 0.005 µM
